Experimental findings from US20260356851A1, “TRICYCLIC COMPOUNDS AND USES THEREOF” (HUTCHMED LIMITED, priority 2023, published 2026) are described below.

What is called IC50 is the concentration needed to halve the response being measured.

Common to all, as to format: cell-based
The target of assay [1] is T1, pERK1/2 (Thr202/Tyr204), NCI-1H441 (KRAS G12V) (Homo sapiens, UniProt P01116, G12V).
T1 construct: pERK1/2 HTRF read-out
Kind of assay: Assay of intracellular pERK1/2 (Thr202/Tyr204) phosphorylation in NCI-H441 cells (KRAS G12V). The note with it: pERK1/2, 2 days, read-out: NCI-H441 (KRAS G12V) IC50. The method in brief:
(§1)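 Cells (10000-12000/well) exposed to 3-fold compound dilutions for 2 days at 37 °C, then lysed; pERK1/2 (Thr202/Tyr204) measured by HTRF with d2 and cryptate antibodies, 665/615 nm ratio.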

Assay [2] concerns the target T2, pERK1/2 (Thr202/Tyr204), PANC-1 (KRAS G121D) (Homo sapiens, UniProt P01116, G12D).
T2 construct: pERK1/2 HTRF read-out
The assay can be described thus: Assay of intracellular pERK1/2 (Thr202/Tyr204) phosphorylation in PANC-1 cells (KRAS G12D). The note with it: pERK1/2, 2 days, read-out: PANC-1 (KRAS G12D) IC50. The method in brief:
as §1

Assay [3] concerns the target T3, pERK1/2 (Thr202/Tyr204), NCI-1H358 (KRAS G12C) (Homo sapiens, UniProt P01116, G12C).
T3 construct: pERK1/2 HTRF read-out
The assay can be described thus: Assay of intracellular pERK1/2 (Thr202/Tyr204) phosphorylation in NCI-H358 cells (KRAS G12C). Conditions: pERK1/2, 2 days, read-out: NCI-H358 (KRAS G12C) IC50. The method in brief: as §1

T1 sequence (P01116 1-188 isoform P01116-2 G12V): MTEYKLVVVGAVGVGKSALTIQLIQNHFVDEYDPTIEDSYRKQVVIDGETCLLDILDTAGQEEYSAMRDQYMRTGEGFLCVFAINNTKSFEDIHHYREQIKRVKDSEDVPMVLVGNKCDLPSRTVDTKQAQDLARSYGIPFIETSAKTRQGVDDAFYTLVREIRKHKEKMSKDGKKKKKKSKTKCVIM
T3 sequence (P01116 1-188 isoform P01116-2 G12C): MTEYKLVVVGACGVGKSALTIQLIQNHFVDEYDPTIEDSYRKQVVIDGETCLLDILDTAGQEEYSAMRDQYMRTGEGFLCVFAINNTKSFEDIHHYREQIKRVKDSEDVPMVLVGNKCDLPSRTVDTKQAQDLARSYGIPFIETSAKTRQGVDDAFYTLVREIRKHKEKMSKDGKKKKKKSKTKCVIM
T2 sequence (P01116 1-188 isoform P01116-2 G12D): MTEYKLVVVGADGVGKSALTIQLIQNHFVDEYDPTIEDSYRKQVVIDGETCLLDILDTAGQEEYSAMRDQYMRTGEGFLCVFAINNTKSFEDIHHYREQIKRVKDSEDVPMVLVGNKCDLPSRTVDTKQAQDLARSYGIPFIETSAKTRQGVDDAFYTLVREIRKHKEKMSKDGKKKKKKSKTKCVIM

With `[2H]C([2H])(Oc1nc2c3c(nc(-c4cc(N)cc(C)c4C(F)(F)F)c(F)c3n1)OCCN2C(C)c1cccnc1N)[C@@H]1C[C@@H](F)CN1C([2H])([2H])[2H]` (stereo partly drawn) [Compound 122], the IC50 in assay [1] is 1 nM; in assay [2], 11 nM; in assay [3] it was 0.6 nM.

Consider `Cc1cc(N)cc(-c2nc3c4c(nc(OC[C@@H]5CCCN5C5COC5)nc4c2F)N(C(C)c2cccnc2N)CCO3)c1C(F)(F)F` (stereo partly drawn) [Compound 123], for which the IC50 is 4 nM in assay [1], more than 100 nM in assay [2] and 2 nM in assay [3].

As for `[2H]C([2H])(Oc1nc2c3c(nc(-c4cc(N)ccc4C(F)(F)F)c(F)c3n1)OCCN2C(C)c1cccnc1N)[C@@H]1C[C@@H](F)CN1C([2H])([2H])[2H]` (stereo partly drawn) [Compound 126], the IC50 was 31 nM in assay [1], more than 100 nM in assay [2] and 7 nM in assay [3].

Regarding `[2H]C1([2H])CC[C@@]2(C([2H])([2H])Oc3nc4c5c(nc(-c6cc(N)ccc6C(F)(F)F)c(F)c5n3)OCCN4C(C)c3cccnc3N)C[C@@H](F)CN12` (stereo partly drawn) [Compound 129], the values for the IC50 in assay [1], in assay [2] and in assay [3] were 2 nM, 26 nM and 0.9 nM, respectively.

With `CC(c1cccnc1N)N1CCOc2nc(-c3cc(O)cc(Cl)c3C3CC3)c(F)c3nc(OC[C@@H]4COCCN4C)nc1c23` (stereo partly drawn) [Compound 134], the figures for the IC50 in assay [1], in assay [2] and in assay [3] were 34 nM, more than 100 nM and 31 nM, respectively.

Consider `CC(c1cccnc1N)N1CCOc2nc(-c3cc(N)c(F)cc3C(F)(F)F)c(F)c3nc(OC[C@@]45CCCN4C[C@H](F)C5)nc1c23` (stereo partly drawn) [Compound 135], for which the values for the IC50 in assay [1], in assay [2] and in assay [3] were 3 nM, 30 nM and 2 nM, respectively.

Turning to `[2H]C([2H])(Oc1nc2c3c(nc(-c4cc(N)c(F)cc4C(F)(F)F)c(F)c3n1)OCCN2C(C)c1cccnc1N)[C@@H]1C[C@@H](F)CN1C([2H])([2H])[2H]` (stereo partly drawn) [Compound 136], the IC50 in assay [1] was 61 nM; in assay [2], more than 100 nM; in assay [3] it was 17 nM.

As for `CC(c1cccnc1N)N1CCOc2nc(-c3cc(O)cc(Cl)c3C3CC3)c(F)c3nc(OC[C@@H]4CCCCN4C)nc1c23` (stereo partly drawn) [Compound 139], the IC50 in assay [1] is more than 100 nM; in assay [2], more than 100 nM; in assay [3] it was 91 nM.

As to `[2H]C1([2H])CN(C(C)c2cccnc2N)c2nc(OC[C@@]34CCCN3C[C@H](F)C4)nc3c(F)c(-c4cc(N)cc(C)c4C(F)(F)F)nc(c23)O1` (stereo partly drawn) [Compound 140], the results for the IC50 in assay [1], in assay [2] and in assay [3] were 0.9 nM, 1 nM and 0.3 nM, respectively.

In the case of `[2H]C1([2H])CN(C([2H])(C)c2cccnc2N)c2nc(OC[C@@]34CCCN3C[C@H](F)C4)nc3c(F)c(-c4cc(N)cc(C)c4C(F)(F)F)nc(c23)O1` (stereo partly drawn) [Compound 141], the IC50 in assay [1] is 0.7 nM; in assay [2], more than 100 nM; in assay [3], 0.3 nM.

As to `Cc1cc(N)cc(-c2nc3c4c(nc(OC[C@@]56CCCN5C[C@H](F)C6)nc4c2F)N(C(C)c2cccnc2N)CCO3)c1C1CC1` (stereo partly drawn) [Compound 146], the IC50 was 3 nM in assay [1], 16 nM in assay [2] and 0.8 nM in assay [3].

Take `[2H]C1([2H])CC[C@@]2(COc3nc4c5c(nc(-c6cc(N)c(F)c(C)c6C(F)(F)F)c(F)c5n3)OCCN4C(C)c3cccnc3N)C[C@@]([2H])(F)CN12` (stereo partly drawn) [Compound 148]: the IC50 in assay [1] turned out to be 0.3 nM; in assay [2] it was 1 nM; in assay [3], 0.2 nM.

In the case of `[2H]C([2H])(Oc1nc2c3c(nc(-c4cc(N)c(F)c(C)c4C(F)(F)F)c(F)c3n1)OCCN2C(C)c1cccnc1N)[C@@H]1C[C@@H](F)CN1C([2H])([2H])[2H]` (stereo partly drawn) [Compound 149], the IC50 stood at 0.9 nM in assay [1], 7 nM in assay [2] and 0.3 nM in assay [3].

`[2H]C1([2H])CC[C@@]2(COc3nc4c5c(nc(-c6cc(N)c(F)c(C)c6C(F)(F)F)c(F)c5n3)OCCN4C(C)c3cccnc3N)C[C@@H](F)CN12` (stereo partly drawn) [Compound 150]: the results for the IC50 in assay [1], in assay [2] and in assay [3] were 0.3 nM, 1 nM and 0.2 nM, respectively.

Take `[2H]C1([2H])CN(C(C)c2cccnc2N)c2nc(OC[C@@]34CCCN3C[C@H](F)C4)nc3c(F)c(-c4cc(N)c(F)c(C)c4C(F)(F)F)nc(c23)O1` (stereo partly drawn) [Compound 157]: the IC50 in assay [1] amounted to 0.5 nM; in assay [2] it was 2 nM; in assay [3], 0.3 nM.

In the case of `CC(c1cccnc1N)N1CCOc2nc(-c3cc(N)c(F)c(F)c3F)c(F)c3nc(OC[C@@]45CCCN4C[C@H](F)C5)nc1c23` (stereo partly drawn) [Compound 158], the figures for the IC50 in assay [1], in assay [2] and in assay [3] were more than 100 nM, more than 100 nM and 96 nM, respectively.

As to `Cc1cc(O)cc(-c2nc3c4c(nc(OC[C@@]56CCCN5C[C@H](F)C6)nc4c2F)N(C(C)c2cccnc2N)CCO3)c1C1CC1` (stereo partly drawn) [Compound 159], the IC50 in assay [1] came to 1 nM; in assay [2], 15 nM; in assay [3] it was 0.6 nM.

On to `Cc1cc(Nc2nc3c4c(nc(OC[C@@]56CCCN5C[C@H](F)C6)nc4c2F)N(C(C)c2cccnc2N)CCO3)c(F)cc1C(F)(F)F` (stereo partly drawn) [Compound 162], for which the IC50 in assay [1], in assay [2] and in assay [3] was more than 100 nM each time.

For the molecule `Cc1c(F)c(N)cc(-c2nc3c4c(nc(OC[C@]56CCCN5C[C@@H](F)C6)nc4c2F)N(C(C)c2cccnc2N)CCO3)c1C(F)(F)F` (stereo partly drawn) [Compound 163], the figures for the IC50 in assay [1], in assay [2] and in assay [3] were 0.4 nM, 6 nM and 0.2 nM, respectively.

Turning to `Cc1c(F)c(N)cc(-c2nc3c4c(nc(OC[C@]56CCCN5C[C@H](F)C6)nc4c2F)N(C(C)c2cccnc2N)CCO3)c1C(F)(F)F` (stereo partly drawn) [Compound 164], the IC50 in assay [1] turned out to be 0.3 nM; in assay [2], 3 nM; in assay [3], 0.2 nM.

Regarding `Cc1c(F)c(N)cc(-c2nc3c4c(nc(OC[C@@]56CCCN5C[C@@H](F)C6)nc4c2F)N(C(C)c2cccnc2N)CCO3)c1C(F)(F)F` (stereo partly drawn) [Compound 165], the results for the IC50 in assay [1], in assay [2] and in assay [3] were 3 nM, 47 nM and 1 nM, respectively.

As for `CC(c1cccnc1N)N1CCOc2nc(-c3cc(N)c(F)c(Cl)c3C(F)(F)F)c(F)c3nc(OC[C@@]45CCCN4C[C@H](F)C5)nc1c23` (stereo partly drawn) [Compound 168], the IC50 in assay [1] amounted to 0.4 nM; in assay [2] it was 2 nM; in assay [3] it was 0.2 nM.

`Cc1c(F)c(N)cc(-c2nc3c4c(nc(OC[C@@]56CCCN5CC(F)(F)C6)nc4c2F)N(C(C)c2cccnc2N)CCO3)c1C(F)(F)F` (stereo partly drawn) [Compound 171]: the values for the IC50 in assay [1], in assay [2] and in assay [3] were 2 nM, 27 nM and 0.5 nM, respectively.

Regarding `Cc1cc(N)cc(-c2nc3c4c(nc(OC[C@@]56CCCN5C[C@H](F)C6)nc4c2F)N(C(C)c2cc(F)cnc2N)CCO3)c1C(F)(F)F` (stereo partly drawn) [Compound 173], the values for the IC50 in assay [1], in assay [2] and in assay [3] were 0.8 nM, 7 nM and 0.5 nM, respectively.

As for `Cc1c(F)c(N)cc(-c2nc3c4c(nc(OC[C@@]56CCCN5C[C@H](F)C6)nc4c2F)N(C(C)c2cc(F)cnc2N)CCO3)c1C(F)(F)F` (stereo partly drawn) [Compound 177], the IC50 is 2 nM in assay [1], 11 nM in assay [2] and 0.7 nM in assay [3].

For `Cc1c(F)c(N)cc(-c2nc3c4c(nc(OC[C@@]56CCCN5C[C@H](F)C6)nc4c2F)N(Cc2cccnc2N)CCO3)c1C(F)(F)F` [Compound 180], the IC50 in assay [1] was found to be 6 nM; in assay [2], 35 nM; in assay [3], 1 nM.

As to `Cc1cc(N)cc(-c2nc3c4c(nc(OC[C@@]56CCCN5C[C@H](F)C6)nc4c2F)N(C(C)c2cccnc2N)C2(CC2)CO3)c1C(F)(F)F` (stereo partly drawn) [Compound 181], the IC50 in assay [1], in assay [2] and in assay [3] was more than 100 nM each time.

As for `Cc1c(F)c(N)cc(-c2nc3c4c(nc(OC[C@@H]5C[C@@H](F)CN5C)nc4c2F)N(C(C)c2cccnc2N)CCO3)c1C(F)(F)F` (stereo partly drawn) [Compound 185], the IC50 was 1 nM in assay [1], 13 nM in assay [2] and 0.3 nM in assay [3].

For `Cc1c(F)c(N)cc(-c2nc3c4c(nc(OC[C@@]56CCCN5C[C@H](F)C6)nc4c2F)N(C2(c4cccnc4N)CC2)CCO3)c1C(F)(F)F` [Compound 187], the figures for the IC50 in assay [1], in assay [2] and in assay [3] were 44 nM, more than 100 nM and 63 nM, respectively.

As for `Cc1c(F)c(N)cc(-c2nc3c4c(nc(OC[C@@]56CCC(=O)N5C[C@H](F)C6)nc4c2F)N(C(C)c2cccnc2N)CCO3)c1C(F)(F)F` (stereo partly drawn) [Compound 195], the results for the IC50 in assay [1], in assay [2] and in assay [3] were 99 nM, more than 100 nM and 33 nM, respectively.

Turning to `Cc1c(F)c(N)cc(-c2nc3c4c(nc(OC[C@@]56CCCN5C[C@H](F)C6)nc4c2F)N(C2CC2)CCO3)c1C(F)(F)F` [Compound 196], the IC50 in assay [1], in assay [2] and in assay [3] was more than 100 nM each time.

Take `C#Cc1c(F)ccc2cc(O)cc(-c3nc4c5c(nc(OC[C@@]67CCCN6C[C@H](F)C7)nc5c3F)N(C3CC3)CCO4)c12` [Compound 197]: the half-inhibitory concentration (IC50) in assay [1], in assay [2] and in assay [3] was more than 100 nM in each case.

In the case of `Cc1c(F)c(N)cc(-c2nc3c4c(nc(OC[C@@]56CCCN5C[C@H](F)C6)nc4c2F)N(C2CCNC2)CCO3)c1C(F)(F)F` (stereo partly drawn) [Compound 198], the IC50 in assay [1], in assay [2] and in assay [3] was more than 100 nM each time.

Take `Cc1c(F)c(N)cc(-c2nc3c4c(nc(OC[C@@]56CCCN5C[C@H](F)C6)nc4c2F)N(C(C)c2cccnc2N)CCO3)c1Cl` (stereo partly drawn) [Compound 204]: the IC50 was found to be 4 nM in assay [1], 49 nM in assay [2] and 1 nM in assay [3].
